Tests used:
[1] = biological target: T1, NCp7-RNA interactions (Human immunodeficiency virus type 1 group M subtype B, UniProt P12493); test: AT-2 treatment of HIV-1 virions analyzed by hSHAPE; conditions: in virio compared with AT-2 treated virions
T1 construct: expressed in transfected cells; host or cells: 293T cells cotransfected with pNL4-3 and pHCMV-G; the protein sits in the released virus particles
Excerpt: The most prominent protein ligand for genomic RNA in mature HIV virions is the nucleocapsid protein. The nucleocapsid protein (NCp7) contains two highly conserved zinc-knuckle motifs comprised of cysteine and histidine residues that coordinate zinc ions and bind preferentially to guanosine. These compact motifs are flanked by positively charged residues that interact at adjacent RNA elements. Zinc ejecting agents such as 2,2′-dithioldipyridine (or AT-2) quantitatively disrupt interactions between the zinc ion and its cysteine ligands to compromise NCp7-RNA interactions, but leave the surface of the virus particle intact. Nucleocapsid-RNA interactions were disrupted in situ by treating virions with AT-2. The resulting genomic RNA was analyzed using hSHAPE.
Aldrithiol-2 (AT-2, systematic name 2,2′-dithiodipyridine; 0.5 M in DMSO, 2.0 mL) or DMSO (2.0 mL) was added to 1.0 L virus supernatant and incubated overnight at 4° C. Virus particles from the (+) and (−) AT-2 experiments were pelleted separately by centrifugation (110,000 g, 4° C., 1.5 hours) through a 20% (w/v) sucrose cushion in phosphate buffered saline. Pellets were resuspended in 1.0 mL NMIA reaction buffer (50 mM Hepes (pH 8), 200 mM NaCl, 0.1 mM EDTA, and 10% fetal bovine serum). […]

[2] = system: pAp-ethyl; test: 2′-O-adduct formation with [32P]-labeled pAp-ethyl; conditions: for change in rate of reaction with pAp-ethyl from 0 to 20 mM Mg2+: 0 to 20 mM Mg2+ (FIG. 6)
Protocol: (§1) Hydrolysis was followed by adding (1.5 mM NMIA or 2.0 mM 1M7 in 300 μL DMSO) reagent to 1.1× buffer (2.7 mL, 6.7 mM MgCl2, 111 mM NaCl, 111 mM HEPES (pH 8.0)) equilibrated at 37° C. in a cuvette. Pseudo-first-order rates were obtained by monitoring the absorbance of the hydrolysis product (at 360 nm for 2-methylaminobenzoate and 430 nm for 2-methylamino-4-nitrobenzoate). Rates of adduct formation for [^32P]-labeled pAp-ethyl (10,000 cpm/μL) were obtained by adding 10% (v/v) reagent (5 mM final NMIA or 1M7 in DMSO) to 1.1× reaction buffer, quenching the reaction with 1 vol 250 mM dithiothreitol, resolving by gel electrophoresis (30% polyacrylamide; 29:1 acrylamide:bisacrylamide; 0.4 mm×28.5 cm×23 cm; 30 W; 45 minutes), and quantifying by phosphorimaging. Reaction rates were obtained using an equation that accounts for parallel reaction of NMIA or 1M7 by 2′-O-adduct formation (kadduct) and by hydrolysis (khydrolysis): fraction product=1−exp[(kadduct[reagent]/khydrolysis)(e^−(khydrolysis)t−1)]. Synthesis of Bacillus subtilis RNase P RNA
The ability of each compound to react with 3′-phosphoethyl-5′-adenosine monophosphate (pAp-ethyl) was then evaluated. pAp-ethyl contains a 2′-hydroxyl and 3′-phosphodiester monoanion.

[3] = Reagent hydrolysis followed by UV absorbance of the aminobenzoate product; assay type: physicochemical
Protocol: One (1) μL NMIA in DMSO was added to the (+) NMIA tube and 1 μL neat DMSO was added to the (−) NMIA tube. The tubes were then mixed well. The reaction was incubated for 5 NMIA hydrolysis half-lives. To estimate the NMIA half-life between 15° C. and 75° C., the following equation was used: half life(minutes)=360×exp[−0.102×temperature(° C.)]. […] Thus, at 37° C., the reaction was incubated for about 45 minutes.
as §1
The reagent hydrolysis was monitored as the increase in UV absorbance of the aminobenzoate products. […] In contrast, NMIA required over 20 minutes to react to completion (FIG. 5).

[4] = Solubility of reagent stock in DMSO; assay type: physicochemical; conditions: organic solvent or mixture; 10× stock in DMSO; read-out: stock concentration limit due to solubility of the reagent
Protocol: The concentration of this solution can vary with RNA length. For RNA reads of 100, 200 and 300 nucleotides, 10×NMIA concentrations of 130, 65 and 30 mM, can be used.

[5] = system: retroviral membrane; test: NMIA modification of genomic RNA inside HIV-1 viral particles
Protocol: The structure of HIV-1 genomic RNA inside infectious virions was analyzed by treating viral particles with NMIA and then extracting and processing the modified RNA (the in virio state). Numerous reproducible differences between the ex virio and in virio states were observed that report virion-specific RNA structures and RNA-protein interactions.
Concentrated samples of either purified viral particles or particles treated with AT-2 (500 μL) in NMIA reaction buffer were treated with NMIA (50 μL, 100 mM) or neat DMSO (50 μL) for 50 minutes at 37° C. The virus particle production, AT-2 treatment, and NMIA modification steps were performed as a single continuous process and without intermediate storage steps.

c1ccc(SSc2ccccn2)nc1 [AT-2, 2,2′-dithiodipyridine]
specificity of the effect of AT-2 treatment on SHAPE reactivity of genomic RNA [1]: highly specific

Cn1c(=O)oc(=O)c2ccc([N+](=O)[O-])cc21 [1M7, 1-methyl-7-nitroisatoic anhydride]
increase in rates of hydrolysis and of 2′-hydroxyl acylation relative to NMIA [2]: 20 fold | change in rate of reaction with pAp-ethyl from 0 to 20 mM Mg2+ [2]: negligible | rate of reaction with pAp-ethyl, compared with NMIA ([2]; 5 mM reagent): significantly more rapidly | time until reaction is complete ([3]; 37° C., pH 8.0 buffer): about 70 seconds | half-life at 0.2 mM ([3]; HEPES buffer with 10% DMSO, 37° C., pH 8.0 buffer, 10% DMSO): 0.233 min | dependence of hydrolysis on Mg2+ concentration ([3]; control experiments): independent of Mg^2+ concentration

Cn1c(=O)oc(=O)c2ccccc21 [NMIA, N-methylisatoic anhydride]
solubility [4]: ≤ 130 mM | change in rate of reaction with pAp-ethyl from 0 to 20 mM Mg2+ [2]: greater than 2 fold | time required to react to completion ([3]; 37° C., pH 8.0 buffer): over 20 minutes | half-life ([3]; pH 8, 37° C., from half life = 360×exp[−0.102×temperature], read-out: NMIA hydrolysis half-life): 8.3 min | passage across the retroviral membrane [5]: readily crosses the retroviral membrane
